From patent US10874644B2, “Therapeutic approaches for treating Alzheimer disease and related disorders through a modulation of synapse function” (Pharnext, priority 2008, dated 2020) come the findings set out here.

Data set [1] has as its system rat primary cortical neurons. Description: Neurite outgrowth (neurites length) in beta-amyloid Aβ25-35 intoxicated rat primary cortical neuron culture. To be noted: Aβ25-35 20 μM for 2 days, drug added 1 hour before, Fig. 1A, 1B. The data set is classed as cell-based. From the text:
Viable cells are counted in a Neubauer cytometer using the trypan blue exclusion test.

Data set [2] deals with rat primary cortical neurons. Description: LDH release in human Aβ1-42 toxicity on rat primary cortical cells. The data set is classed as cell-based. To be noted: 1 h pre-treatment, Aβ1-42 10 μM for 24 h. The procedure:
Primary rat cortical neurons are cultured as described previously. […] The control medium was prepared in the same conditions.
Cortical neurons were intoxicated for 24 hours. Three separate cultures were performed per condition, 6 wells per condition.
This colorimetric assay for the quantification of cell toxicity is based on the measurement of lactate dehydrogenase (LDH) activity released from the cytosol of dying cells into the supernatant.
(Release of lactate dehydrogenase indicates damage to the cell membrane.)

For the molecule `CC(=O)NCCCS(=O)(=O)O` [Acamprosate], the “Prevention of Aβ25-35 intoxication (neurite outgrowth, neurites length)” value (“Prevention of Aβ25-35 intoxication” below) in data set [1] is “significantly prevented”.

Take `NS(=O)(=O)Cc1noc2ccccc12` [Zonisamide]: the “Prevention of Aβ25-35 intoxication” value in data set [1] is “significantly prevented”. The “Prevention of Aβ1-42 intoxication, change of LDH release” value in data set [2] (Fig. 3B, 3C) is recorded as −75%.

B1: BDNF: Brain-derived neurotrophic factor, used as a positive (neuroprotective) control (protein, UniProt P23560 19-247, looked up)
Neurotrophic factor BDNF …: APMKEANIRGQGGLAYPGVRTHGTLESVNGPKAGSRGLTSLADTFEHVIEELLDEDQKVRPNEENNKDADLYTSRVMLSSQVPLEPPLLFLLEEYKNYLDAANMSMRVRRHSDPARRGELSVCDSISEWVTAADKKTAVDMSGGTVTVLEKVPVSKGQLKQYFYETKCNPMGYTKEGCRGIDKRHWNSQCRTTQSYVRALTMDSKKRIGWRFIRIDTSCVCTLTIKRGR
In the case of B1, the “Prevention of Aβ25-35 intoxication” value in data set [1] is “efficiently prevented”. Further, the “Protection from Aβ1-42 amyloid injury (LDH release)” value in data set [2] (Fig. 3A) was “significantly protected”.
